The source of these data is article PMC12363935, “Unc-51 Like Kinase 3 (ULK3) is essential for autophagy and cell survival in multiple myeloma” (Research Square, 2025).

Molecules are shown by their SMILES.

Assay [1] deals with autophagy proteins in U266 MM cells. The assay is described as follows: Immunoblot densitometry of autophagy proteins. Conditions: U266, 6h, MA9-060 1μM, JQ1 10μM, CQ 1μM; for LC3II densitometry: CTRL 0.34; for LC3I densitometry: CTRL 3.01; for ULK1 densitometry: CTRL 7.21; for ULK3 densitometry: CTRL 15.17. The class given is cell-based, Human. On the procedure:
Figure 3. Anti-myeloma activity of the MA9–060 autophagy inhibitor. A. Chemical structure of the autophagy inhibitor MA9–060. […] Chloroquine (CQ) (1μM) served as a positive control for autophagy inhibition. C. […] Hoechst 33342 dye appears here as the nuclear blue staining (Multiple comparisons ANOVA, p <0.0001).
157 5872S). Protein concentration was quantified by Thermo Scientific™ Pierce™ BCA™ Protein
30 μg protein was loaded to 10%-15% gel and ran at
159 100V for 2 hours. Later protein was transferred to PVDF membrane and blocked with 5% skimmed
160 milk in TBST (10 mM Tris/HCl pH8.0, 0.12M NaCl, 0.1% Tween 20) containing 5% BSA [8] for
163 at 4°C overnight. Membranes were washed 3 times,10 minutes with TBS. Then incubated with
164 appropriate secondary antibodies at 1:1000 ratio in skimmed milk or 2% BSA. The membranes
165 were washed again 3 times for 10 minutes with TBST. ECL reagents were added to the membrane
166 and blot was developed by LICOR Imaging Studio.
167 All immunoblotting assays were performed at least in three replicates and representative
168 images are shown. Commercially available antibodies and their dilutions are listed in
169 Supplementary Table 5. Immunoblotting images were acquired and quantified using LICOR
170 Image Studio Quant software. […]
Background: Immunoblotting shows a protein as a band on a membrane.

The test system of another assay is U266. The assay is described as follows: MTS cell viability assay. The class given is cell-based. The following applies: Homo sapiens, U-266; U266, 48h, Fig. 6E; read-out: IC50, Survival (%). On the procedure: (§1) Myeloma cell lines were plated in 96-well plates (2 × 10^5 cells/ml) and treated with vehicle control (HPβCD) and test compounds. Cell viability was assessed at 48 hours using the MTS assay (CellTiter 96, CAT# G3582). Absorbance was measured at 490 nm after a 2-hour incubation at 37°C. IC50 values were calculated using Prism software (version 9.3.1), and synergy matrices were generated with Combenefit Software.
On the technique in general: Formazan colour is commonly taken as a measure of viable cells.

Another assay has as its system U266-PSR. The assay is described as follows: MTS cell viability assay. The class given is cell-based. The following applies: 48h, Fig. 6E, read-out: IC50, Survival (%). How it is done: as §1
A further assay concerns U266-Luc MM cells. The assay is described as follows: U266-Luc in vivo model, tail vein injection. The following applies: 10 mg/kg/day, M-F, from day 20; days post-tumor inoculation. On the procedure:
For the U266-Luc model, 1 × 10^6 cells (100 μl/PBS) were tail vein injected into 4- to 6-week-old female and male NSG mice. […] Endpoint was represented by hind limb paralysis or >20% weight loss. When sacrificed, tumors tibiae were harvested and fixed in 10% neutral buffered formalin for 24 hours. Bioluminescent signal is reported as the average of the sum of dorsal and ventral signal of the mice/group/timepoint. […]
28 Animal Experimentation: All animal experiments were performed with approval from the
29 Moffitt/University of South Florida Institutional Animal Care and Use Committee (Protocol
31 validation of MA9 efficacy (Figure 4), we initially included n = 10 mice per treatment group:
Randomization based on sex, weight,
33 and initial tumor burden was conducted, followed by treatment with either vehicle control (n = 6),
35 Tumor progression was tracked via bioluminescence: endpoint was paralysis or >20% weight loss.
36 Experiments were blinded. […]
38 For MA9 therapy efficacy, mice were treated with vehicle (n=10) or MA9 (10 mg/kg/day,
39 subcutaneously, M-F from day 20; n=10) (Supplementary Fig. 7E, F). Survival and toxicity
40 (weight, clinical signs) was monitored.
43 Luciferase-labeled MM cells 5TGM1-Luc (RRID: CVCL_VI66) and U266-Luc (RRID: […]
51 cells (all from the ATCC, USA) were routinely cultured at 37 °C in Roswell Park Memorial
53 FBS1) and penicillin/streptomycin (hereafter, complete medium).
54 Cells were not used for five days following PI-treatment. All myeloma cell lines were […]

For assay [2], the system named is MM cells (5TGM1, 8226, and U266). Description: MTS assay on MM cells. The class given is cell-based. On the procedure:
as §1

For assay [3], the system named is autophagy in U266 MM cells. The assay is described as follows: CYTO-ID autophagy detection. The class given is cell-based, Human. How it is done:
Autophagic activity was monitored using the Cyto-ID Green Autophagy Detection Kit (Enzo Life Sciences, ENZ-51031-K200, USA) as per manufacturer’s instructions. Further details and protocols for quantitative analysis by Flow Cytometry and Confocal Microscopy are provided in Supplementary Materials.
248 80% confluence. Cells were pelleted again and re-suspended in Resuspension Buffer R (Neon 10
249 μl kit Invitrogen) to a final concentration of 1 × 10^7 cells/ml. 1 × 10^6 cells were then transferred to
250 a sterile 1.5 ml microcentrifuge tube (Sarstedt), brought to 10 μl final volume of cell suspension
251 with Buffer R, and mixed with Alt-R CRISPR-Cas9 crRNA: Hs.Cas9.ULK3.1.AA (position
253 […]), (Integrated DNA Technologies). Alt-R CRISPR-Cas9
254 Negative Control RNA #1 (CAT# 1079138) was used in NTC control. Cells were counted,
255 electroporated and seeded in a 24-well plate with 0.5 ml of pre-warmed supplemented RPMI
258 Measurement of autophagic activity - CytoID Assay
260 autophagic compartments. Cells were washed and treated with 1 μM tested compound or vehicle
261 control for 6h under standard tissue culture conditions. […]
270 later, cells were washed and assessed by flow cytometry. […]
272 compensation and fluorescence-minus-one (FMO) controls were generated in parallel. […]
273 fluorescence intensity (MFI) and percentage of Cyto-ID Green-expressing MM singlet live (DAPI […]

By IC50 is commonly meant the point on the concentration scale where inhibition reaches its midpoint. In assay [1], `CCN(CC)CCCC(C)Nc1ccnc2cc(Cl)ccc12` (centres unmarked) [CQ, Chloroquine] registered an LC3II densitometry of 0.14, an LC3I densitometry of 1.69, a ULK1 densitometry of 0.78 and a ULK3 densitometry of 11.1. Also, in the assay on U266, the IC50 was found to be 0.055 mM. Also, in the assay with U266-PSR, the IC50 was found to be 8.7 mM. This compound also showed a median survival in the assay on U266-Luc MM cells of 81.5 days.

Regarding `N#CC[C@H](C1CCCC1)n1cc(-c2ncnc3[nH]ccc23)cn1` [ruxolitinib], the “effect on cell survival” value in assay [2] is listed as “no effect”.

As to `Cc1sc2c(c1C)C(c1ccc(Cl)cc1)=N[C@@H](CC(=O)OC(C)(C)C)c1nnc(C)n1-2` [JQ1], in assay [3], the effect on autophagy entry is on record as “no effect”. Also, in assay [1], the LC3II densitometry was 0.40, the LC3I densitometry came to 3.36, the ULK1 densitometry is recorded as 6.20 and the ULK3 densitometry was determined as 16.81. In the assay with U266-Luc MM cells, this compound had a median survival of 90.5 days.
